This passage reports pest or weed control results from patent US8895761B2, “4-phenylpyrane-3,5-diones, 4-phenylthiopyrane-3,5-diones and 2-phenylcyclohexane-1,3,5-triones as herbicides” (Syngenta Limited, priority 2007, dated 2014).

For orientation: pest or weed control means the degree to which the test organism was suppressed or injured, in per cent. A lower pest or weed control goes with weak suppression.

What all share (assay type): in vivo
The subject of experiment [1] is Lolium perenne (LOLPE). Nature of the experiment: Post-emergence herbicidal glasshouse test, Lolium perenne. The note with it: 312 h, rate 250 g/ha, evaluated after 13 days, scale 100 = total damage to plant, 0 = no damage. Here is the method: (§1) Seeds of a variety of test species were sown in standard soil in pots. After cultivation for one day (pre-emergence) or after 8 days cultivation (post-emergence) under controlled conditions in a glasshouse (at 24/16° C., day/night; 14 hours light; 65% humidity), the plants were sprayed with an aqueous spray solution derived from the formulation of the technical active ingredient in acetone/water (50:50) solution containing 0.5% Tween 20 (polyoxyethelyene sorbitan monolaurate, CAS RN 9005-64-5). The test plants were then grown in a glasshouse under controlled conditions in a glasshouse (at 24/16° C., day/night; 14 hours light; 65% humidity) and watered twice daily. After 13 days for pre and post-emergence, the test was evaluated ([…] to plant; 0=no damage to plant).
(§2) Setaria faberi (SETFA), Lolium perenne (LOLPE), Alopecurus myosuroides (ALOMY), Echinochloa crus-galli (ECHCG) and Avena fatua (AVEFA).

The test system of experiment [2] is Avena fatua (AVEFA). Nature of the experiment: Pre-emergence herbicidal glasshouse test, Avena fatua. The note with it: Avena fatua, 312 h, rate 250 g/ha, evaluated after 13 days, scale 100 = total damage to plant, 0 = no damage. As for the experimental part: as §1, §2
Experiment [3] has as its system Lolium perenne (LOLPE). Nature of the experiment: Pre-emergence herbicidal glasshouse test, Lolium perenne. The note with it: 312 h, rate 250 g/ha, evaluated after 13 days, scale 100 = total damage to plant, 0 = no damage. As for the experimental part: as §1, §2
Experiment [4] has as its system Echinochloa crus-galli (ECHCG). Briefly: Post-emergence herbicidal glasshouse test, Echinochloa crus-galli. Particulars: Echinochloa crus-galli, 312 h, rate 250 g/ha, evaluated after 13 days, scale 100 = total damage to plant, 0 = no damage. Here is the method:
as §1, §2

Experiment [5] deals with Alopecurus myosuroides (ALOMY). Briefly: Pre-emergence herbicidal glasshouse test, Alopecurus myosuroides. Particulars: Alopecurus myosuroides, 312 h, rate 250 g/ha, evaluated after 13 days, scale 100 = total damage to plant, 0 = no damage. Here is the method: as §1, §2
For experiment [6], the system named is Avena fatua (AVEFA). Nature of the experiment: Post-emergence herbicidal glasshouse test, Avena fatua. The note with it: Avena fatua, 312 h, rate 250 g/ha, evaluated after 13 days, scale 100 = total damage to plant, 0 = no damage. Here is the method: as §1, §2
The test system of experiment [7] is Alopecurus myosuroides (ALOMY). Nature of the experiment: Post-emergence herbicidal glasshouse test, Alopecurus myosuroides. Particulars: Alopecurus myosuroides, 312 h, rate 250 g/ha, evaluated after 13 days, scale 100 = total damage to plant, 0 = no damage. As for the experimental part: as §1, §2
Experiment [8] concerns Echinochloa crus-galli (ECHCG). Briefly: Pre-emergence herbicidal glasshouse test, Echinochloa crus-galli. Particulars: Echinochloa crus-galli, 312 h, rate 250 g/ha, evaluated after 13 days, scale 100 = total damage to plant, 0 = no damage. Here is the method:
as §1, §2

As to `CCc1cc(-c2ccc(F)c(F)c2)ccc1C1=C(O)C(C)(C)OC(C)(C)C1=O` [Compound A-75], the pest or weed control at 250 g/ha in experiment [1] came to 100%; in experiment [2], 30%; in experiment [3], 40%; in experiment [4] it was 100%; in experiment [5], 0%; in experiment [6], 90%. Besides, the pest or weed control at 250 g/ha in experiment [7] was 90%; in experiment [8], 0%.

Turning to `CCc1cc(-c2ccc(F)c(F)c2F)ccc1C1=C(O)C(C)(CC)OC(C)(C)C1=O` (stereo not shown) [Compound A-123], the pest or weed control at 250 g/ha in experiment [1] came out at 80%; in experiment [2], 0%; in experiment [3], 0%; in experiment [4], 90%; in experiment [5], 0%; in experiment [6], 80%. The pest or weed control at 250 g/ha in experiment [7] was found to be 80%; in experiment [8] it was 0%.

Consider `CCc1cc(-c2ccc(F)cc2)ccc1C1=C(O)C(C)(CC)OC(C)(C)C1=O` (stereo not shown) [Compound A-102], for which the pest or weed control at 250 g/ha in experiment [1] came out at 90%; in experiment [2] it was 10%; in experiment [3] it was 70%; in experiment [4] it was 90%; in experiment [5], 60%; in experiment [6], 80%. The pest or weed control at 250 g/ha in experiment [7] worked out at 100%; in experiment [8] it was 30%.

In the case of `CCc1cc(-c2ccc(Cl)cn2)ccc1C1=C(O)C(C)(C)OC(C)(C)C1=O` [Compound A-43], the pest or weed control at 250 g/ha in experiment [1] came to 80%; in experiment [2], 30%; in experiment [3], 50%; in experiment [4], 100%; in experiment [5], 20%; in experiment [6] it was 70%. Further, the pest or weed control at 250 g/ha was found to be 80% in experiment [7] and 70% in experiment [8].

`CCc1cc(-c2ccc(F)c(F)c2F)ccc1C1=C(O)C(C)(C)OC(C)(C)C1=O` [Compound A-87]: the pest or weed control at 250 g/ha in experiment [1] turned out to be 90%; in experiment [2] it was 0%; in experiment [3] it was 0%; in experiment [4] it was 100%; in experiment [5], 0%; in experiment [6], 90%. Moreover, the pest or weed control at 250 g/ha in experiment [7] stood at 70%; in experiment [8], 0%.

As for `CCc1cc(-c2ccc(F)c(OC)c2)ccc1C1=C(O)C(C)(C)S(=O)(=O)C(C)(C)C1=O` [Compound B-16], the pest or weed control at 250 g/ha in experiment [1] is 60%; in experiment [2], 30%; in experiment [3], 40%; in experiment [4], 80%; in experiment [5] it was 20%; in experiment [6], 80%. In addition, the values for the pest or weed control at 250 g/ha in experiment [7] and in experiment [8] were 50% and 40%, respectively.

`CCc1cc(-c2ccc(Cl)c(Cl)c2)ccc1C1=C(O)C(C)(C)OC(C)(C)C1=O` [Compound A-38]: the pest or weed control at 250 g/ha in experiment [1] came to 70%; in experiment [2] it was 0%; in experiment [3], 70%; in experiment [4], 80%; in experiment [5], 0%; in experiment [6], 50%. Besides, the pest or weed control at 250 g/ha in experiment [7] stood at 80%; in experiment [8], 50%.

As to `CCc1cc(-c2ccc(C)c(F)c2)ccc1C1=C(O)C(C)(C)OC(C)(C)C1=O` [Compound A-72], the pest or weed control at 250 g/ha in experiment [1] was 70%; in experiment [2] it was 0%; in experiment [3] it was 0%; in experiment [4], 80%; in experiment [5] it was 0%; in experiment [6] it was 0%. In addition, the pest or weed control at 250 g/ha in experiment [7] and in experiment [8] was 0% in each case.

As for `CCc1cc(-c2ccc(F)c(F)c2)ccc1C1=C(O)C2(CCCC2)OC(C)(C)C1=O` [Compound A-125], the pest or weed control at 250 g/ha in experiment [1] came to 30%; in experiment [2] it was 0%; in experiment [3], 0%; in experiment [4], 70%; in experiment [5], 0%; in experiment [6] it was 10%. Further, the pest or weed control at 250 g/ha amounted to 50% in experiment [7] and 0% in experiment [8].

Consider `CCc1cc(-c2cc(F)c(F)cc2F)ccc1C1=C(O)C(C)(C)C(=O)C(C)(C)C1=O` [Compound C-7], for which the pest or weed control at 250 g/ha in experiment [1] was found to be 60%; in experiment [2], 0%; in experiment [3] it was 20%; in experiment [4], 40%; in experiment [5], 30%; in experiment [6], 10%. The pest or weed control at 250 g/ha in experiment [7] amounted to 40%; in experiment [8] it was 0%.

Turning to `CCc1cc(-c2ccc(F)c(OC)c2)ccc1C1=C(O)C(C)(COC)OC(C)(C)C1=O` (stereo not shown) [Compound A-112], the pest or weed control at 250 g/ha in experiment [1] was determined as 90%; in experiment [2], 80%; in experiment [3], 90%; in experiment [4], 100%; in experiment [5], 80%; in experiment [6] it was 80%. Further, the pest or weed control at 250 g/ha stood at 80% in experiment [7] and 100% in experiment [8].

On to `CCc1cc(-c2ccc(F)cc2)ccc1C1=C(O)C(C)(COC)OC(C)(C)C1=O` (stereo not shown) [Compound A-101], for which the pest or weed control at 250 g/ha in experiment [1] is 100%; in experiment [2], 50%; in experiment [3], 90%; in experiment [4] it was 100%; in experiment [5], 70%; in experiment [6] it was 100%. The pest or weed control at 250 g/ha in experiment [7] was 100%; in experiment [8] it was 50%.

Take `CCc1cc(-c2ccc(F)c(F)c2)ccc1C1=C(O)C(C)(COC)OC(C)(C)C1=O` (stereo not shown) [Compound A-113]: the pest or weed control at 250 g/ha in experiment [1] amounted to 100%; in experiment [2], 90%; in experiment [3], 100%; in experiment [4], 100%; in experiment [5], 100%; in experiment [6] it was 90%. Also, the pest or weed control at 250 g/ha in experiment [7] and in experiment [8] was 100% in each case.

As for `CCc1cc(-c2ccc(F)c(F)c2)ccc1C1=C(O)C(C)(C)S(=O)(=O)C(C)(C)C1=O` [Compound B-17], the pest or weed control at 250 g/ha was found to be 70% in experiment [1]; 10% in experiment [2]; 50% in experiment [3]; 50% in experiment [4]; 50% in experiment [5]; 70% in experiment [6]. The pest or weed control at 250 g/ha in experiment [7] stood at 80%; in experiment [8], 10%.

As to `CCc1cc(-c2cc(F)c(F)cc2F)ccc1C1=C(O)C(C)(C)OC(C)(C)C1=O` [Compound A-86], the pest or weed control at 250 g/ha in experiment [1] worked out at 90%; in experiment [2] it was 0%; in experiment [3], 0%; in experiment [4], 100%; in experiment [5] it was 0%; in experiment [6] it was 70%. Further, the pest or weed control at 250 g/ha was 80% in experiment [7] and 0% in experiment [8].

In the case of `CCc1cc(-c2ccc(F)cc2)ccc1C1=C(O)C2(CCCC2)OC(C)(C)C1=O` [Compound A-103], the pest or weed control at 250 g/ha in experiment [1] was 60%; in experiment [2], 0%; in experiment [3], 20%; in experiment [4] it was 90%; in experiment [5] it was 20%; in experiment [6], 10%. In addition, the pest or weed control at 250 g/ha in experiment [7] came to 60%; in experiment [8], 20%.

With `CCc1cc(-c2cccc(Cl)c2)ccc1C1=C(O)C(C)(C)OC(C)(C)C1=O` [Compound A-95], the pest or weed control at 250 g/ha in experiment [1] came out at 80%; in experiment [2], 0%; in experiment [3] it was 30%; in experiment [4] it was 80%; in experiment [5], 10%; in experiment [6], 50%. The pest or weed control at 250 g/ha stood at 80% in experiment [7] and 30% in experiment [8].
